Test results reported in ChEMBL document CHEMBL1201862, “PubChem BioAssay data set” (2004).
Activity calls are given as the source filed them.

Tests used:
[1] = target: T1, Ubiquitin-conjugating enzyme E2 N (Homo sapiens, UniProt P61088); type: functional;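 also: Dose-response confirmation in a TR-FRET assay detecting UBC13-driven polyubiquitin chain formation, inhibition measured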
T1 sequence (P61088 whole entry): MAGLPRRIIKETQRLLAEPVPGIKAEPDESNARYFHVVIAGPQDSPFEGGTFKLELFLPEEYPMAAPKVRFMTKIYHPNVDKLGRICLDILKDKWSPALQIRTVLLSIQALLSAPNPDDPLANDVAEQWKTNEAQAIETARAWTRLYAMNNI

[2] = target: T2, Streptokinase A (Streptococcus pyogenes serotype M1, UniProt P10520); assay: viability-normalized secreted streptokinase activity reduction – plasminogen activation absorbance, OD405, dose response (AID 1914); type: functional, Streptococcus pyogenes M1 GAS;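 also: secreted streptokinase activity via plasminogen activation per viability signal from cell pellet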
T2 sequence (P10520 whole entry): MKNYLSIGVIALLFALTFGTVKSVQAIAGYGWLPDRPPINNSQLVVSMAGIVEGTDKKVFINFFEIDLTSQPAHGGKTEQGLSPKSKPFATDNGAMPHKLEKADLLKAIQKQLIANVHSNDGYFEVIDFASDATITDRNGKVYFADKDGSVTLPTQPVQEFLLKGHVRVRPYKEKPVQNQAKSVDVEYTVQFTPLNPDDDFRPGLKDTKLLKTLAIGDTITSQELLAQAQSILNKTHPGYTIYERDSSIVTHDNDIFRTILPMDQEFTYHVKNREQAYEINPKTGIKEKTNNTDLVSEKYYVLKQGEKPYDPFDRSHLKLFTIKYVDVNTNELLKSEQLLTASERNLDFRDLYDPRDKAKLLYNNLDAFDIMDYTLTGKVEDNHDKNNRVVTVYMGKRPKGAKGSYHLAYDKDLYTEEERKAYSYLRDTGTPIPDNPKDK

[3] = Luminescence Cell-Based Dose Retest to Confirm Inhibitors of Cancer Stem Cells. [Related pubchem assays (depositor defined):AID2717, AID2721]; type: functional; details: Homo sapiens
[4] = tested on: Streptococcus; assay: GAS UMAA2166 growth inhibition – luminescence, BacTiterGlo, counter-screen for streptokinase expression inhibitor project, dose response (AID 1915); type: functional, organism-based;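 also: potency for reduction of bacterial viability or growth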
[5] = tested on: Streptococcus sp. 'group A'; assay: Streptococcus pyogenes SK(-)GAS viability under kanamycin – luminescence, BacTiterGlo, confirmation, counter-screen for streptokinase expression inhibitor project, dose response (AID 1900); type: functional, organism-based
[6] = tested on: INS1; assay: INS-1E survival protection against cytokine death – cell-based, luminescence, retest, dose response (AID 449756); type: functional; details: Rattus norvegicus;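 also: cell death triggered by IL-1 beta plus TNF-alpha plus IFN-gamma mixture; protective hits raise ATP signal compared with cytokine alone wells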
[7] = NIH3T3 cell viability loss – ATP luminescence, mouse fibroblasts, counter-screen, dose response (AID 2010); type: functional, cell-based; details: NIH3T3;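 also: cells exposed to compound for about 90 hours before reading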
[8] = Trypanosoma cruzi growth suppression in host cells – NIH3T3 host cells, beta-gal luminescence, confirmation (AID 2044); type: functional, cell-based;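 also: intracellular parasites grown in NIH/3T3 mouse fibroblasts as host cells; luminescent beta-galactosidase reporter signal from transgenic T. cruzi replicating inside host cells; inhibitors lower the luminescence signal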
[9] = target: T3, Heat shock factor protein 1 (Mus musculus, UniProt P38532); assay: enhancement of HSF1-driven luciferase signal – cell-based, NIH3T3, luminescence, dose retest, confirmation (AID 435004); type: functional;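 also: stress induced by proteasome inhibitor MG132 added 30 min after compound; luciferase reporter driven by HSF1 response element in NIH3T3 cells; actives raise luminescence as potentiators of the MG132 stress response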
T3 sequence (P38532 whole entry): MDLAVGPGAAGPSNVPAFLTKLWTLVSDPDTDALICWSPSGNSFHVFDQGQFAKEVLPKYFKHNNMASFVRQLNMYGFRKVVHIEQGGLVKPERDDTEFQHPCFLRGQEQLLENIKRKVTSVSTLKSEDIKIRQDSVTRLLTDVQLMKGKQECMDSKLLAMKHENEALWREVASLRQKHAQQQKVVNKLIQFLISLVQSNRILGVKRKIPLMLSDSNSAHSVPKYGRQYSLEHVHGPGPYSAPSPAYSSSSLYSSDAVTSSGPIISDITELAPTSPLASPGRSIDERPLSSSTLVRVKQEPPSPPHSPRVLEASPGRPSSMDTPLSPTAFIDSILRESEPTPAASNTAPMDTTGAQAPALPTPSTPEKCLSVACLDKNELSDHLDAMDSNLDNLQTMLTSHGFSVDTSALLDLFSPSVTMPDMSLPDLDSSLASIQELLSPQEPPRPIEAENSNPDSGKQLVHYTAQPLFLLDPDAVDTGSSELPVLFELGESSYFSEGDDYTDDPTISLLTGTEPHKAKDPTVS

[10] = target: Cytochrome P450 2C19 (Homo sapiens, UniProt P33261); assay: Cytochrome panel assay with activity outcomes. Panel member name: p450-cyp2c19 Compounds with AC50 equal or less than 10 uM are considered active; type: functional; details: read-out: AC50
Chain of Cytochrome P450 2C19 (P33261 whole entry): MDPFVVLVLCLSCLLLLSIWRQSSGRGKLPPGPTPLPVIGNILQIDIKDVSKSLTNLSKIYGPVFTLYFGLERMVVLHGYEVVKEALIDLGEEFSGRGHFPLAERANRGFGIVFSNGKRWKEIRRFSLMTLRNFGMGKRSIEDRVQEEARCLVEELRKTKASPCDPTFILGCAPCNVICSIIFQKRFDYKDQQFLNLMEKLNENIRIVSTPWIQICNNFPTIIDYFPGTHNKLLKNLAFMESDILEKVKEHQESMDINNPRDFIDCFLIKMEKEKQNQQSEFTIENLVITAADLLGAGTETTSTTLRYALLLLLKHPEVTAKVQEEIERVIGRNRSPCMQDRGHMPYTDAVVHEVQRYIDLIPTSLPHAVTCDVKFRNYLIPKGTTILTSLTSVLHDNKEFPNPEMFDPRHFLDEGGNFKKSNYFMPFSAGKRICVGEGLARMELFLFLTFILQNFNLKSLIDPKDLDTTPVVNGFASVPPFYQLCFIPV

[11] = target: Cytochrome P450 2D6 (Homo sapiens, UniProt P10635);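 also: CYP2D6 member of a cytochrome P450 panel assay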
Chain of Cytochrome P450 2D6 (P10635 whole entry): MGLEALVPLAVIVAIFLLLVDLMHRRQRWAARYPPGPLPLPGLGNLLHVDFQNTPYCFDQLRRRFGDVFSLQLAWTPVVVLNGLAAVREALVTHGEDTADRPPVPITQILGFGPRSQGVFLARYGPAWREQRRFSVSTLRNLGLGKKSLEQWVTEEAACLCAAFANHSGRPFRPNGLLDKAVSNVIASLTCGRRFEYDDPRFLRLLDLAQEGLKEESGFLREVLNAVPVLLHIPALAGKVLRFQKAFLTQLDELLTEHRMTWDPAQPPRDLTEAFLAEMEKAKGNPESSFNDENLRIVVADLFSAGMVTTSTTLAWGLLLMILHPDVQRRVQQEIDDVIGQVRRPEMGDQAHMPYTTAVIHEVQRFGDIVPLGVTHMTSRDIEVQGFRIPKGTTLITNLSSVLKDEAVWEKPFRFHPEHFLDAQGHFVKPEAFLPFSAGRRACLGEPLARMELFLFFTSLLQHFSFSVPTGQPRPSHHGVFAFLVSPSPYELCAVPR

[12] = target: T3, Heat shock factor protein 1; assay: decrease of HSF1-responsive luciferase luminescence – cell-based, NIH3T3, dose retest, confirmation (AID 2382); type: functional;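 also: NIH3T3 fibroblasts with HSF1-driven luciferase reporter stressed by proteasome inhibitor MG132; luminescence from HSF1-driven luciferase expression after 8 hours of MG132 stress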
[13] = target: Paired box protein Pax-8 (Homo sapiens, UniProt Q06710); assay: PAX8 transcriptional activity inhibition in RMG-I – RMG-I cells, luciferase, cherry-pick, dose response (AID 687027); type: functional, cell-based;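 also: luciferase reporter driven by Pax8 target thyroperoxidase promoter measured by SteadyGlo luminescence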
Chain of Paired box protein Pax-8 (Q06710 whole entry): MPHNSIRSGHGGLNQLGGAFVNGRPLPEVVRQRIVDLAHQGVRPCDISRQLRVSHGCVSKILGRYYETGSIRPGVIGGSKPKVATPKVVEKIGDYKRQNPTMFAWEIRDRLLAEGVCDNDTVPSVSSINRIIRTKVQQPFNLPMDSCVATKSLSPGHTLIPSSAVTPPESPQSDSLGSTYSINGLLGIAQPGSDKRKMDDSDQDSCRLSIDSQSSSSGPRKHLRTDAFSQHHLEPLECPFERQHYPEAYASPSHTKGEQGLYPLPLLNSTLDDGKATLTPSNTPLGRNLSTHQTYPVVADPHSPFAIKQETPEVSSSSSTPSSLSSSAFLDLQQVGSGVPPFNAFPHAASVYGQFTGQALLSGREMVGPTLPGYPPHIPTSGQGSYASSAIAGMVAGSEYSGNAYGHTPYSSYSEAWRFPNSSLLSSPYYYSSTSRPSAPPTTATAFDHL

[14] = Luminescence Cell-Based Dose Response HTS to Identify Activators of Luciferase Translation or Activity in H4 […] Cells. [Related pubchem assays: 1829 (Project Summary), 1814 (Primary HTS)]; type: functional
[15] = tested on: H4; assay: Luminescence Cell-Based Dose Response HTS to Identify Activators of 5'UTR Stem-Loop Driven Prion Protein mRNA Translation in H4 Neuroglioblastoma Cells. [Related pubchem assays: 1829 (Project Summary), 1814 (Primary HTS)]; type: functional; details: Homo sapiens
[16] = target: Cytochrome P450 3A4 (Homo sapiens, UniProt P08684);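 also: CYP3A4 tested as one member of a cytochrome P450 panel screen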
Chain of Cytochrome P450 3A4 (P08684 whole entry): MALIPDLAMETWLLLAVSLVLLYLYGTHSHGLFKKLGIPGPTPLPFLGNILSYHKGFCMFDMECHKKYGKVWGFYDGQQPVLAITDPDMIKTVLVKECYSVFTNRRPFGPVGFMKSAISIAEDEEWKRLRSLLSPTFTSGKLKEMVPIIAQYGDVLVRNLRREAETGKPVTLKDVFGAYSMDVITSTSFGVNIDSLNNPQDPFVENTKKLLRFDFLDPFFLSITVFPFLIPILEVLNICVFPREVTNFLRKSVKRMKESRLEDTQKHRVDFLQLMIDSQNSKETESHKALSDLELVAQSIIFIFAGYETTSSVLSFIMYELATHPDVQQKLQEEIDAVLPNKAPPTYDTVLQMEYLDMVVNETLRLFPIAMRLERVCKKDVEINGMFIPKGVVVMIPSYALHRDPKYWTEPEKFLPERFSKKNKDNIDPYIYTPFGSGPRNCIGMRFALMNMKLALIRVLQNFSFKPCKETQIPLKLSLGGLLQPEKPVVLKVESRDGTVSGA

[17] = target: T4, Rac GTPase-activating protein 1 (Homo sapiens, UniProt Q9H0H5); assay: blockers of MgcRacGAP-driven Rac1 GTP hydrolysis – biochemical, ADP Hunter fluorescence, primary and confirmatory, confirmation (AID 624330); type: functional
T4 sequence (Q9H0H5 whole entry): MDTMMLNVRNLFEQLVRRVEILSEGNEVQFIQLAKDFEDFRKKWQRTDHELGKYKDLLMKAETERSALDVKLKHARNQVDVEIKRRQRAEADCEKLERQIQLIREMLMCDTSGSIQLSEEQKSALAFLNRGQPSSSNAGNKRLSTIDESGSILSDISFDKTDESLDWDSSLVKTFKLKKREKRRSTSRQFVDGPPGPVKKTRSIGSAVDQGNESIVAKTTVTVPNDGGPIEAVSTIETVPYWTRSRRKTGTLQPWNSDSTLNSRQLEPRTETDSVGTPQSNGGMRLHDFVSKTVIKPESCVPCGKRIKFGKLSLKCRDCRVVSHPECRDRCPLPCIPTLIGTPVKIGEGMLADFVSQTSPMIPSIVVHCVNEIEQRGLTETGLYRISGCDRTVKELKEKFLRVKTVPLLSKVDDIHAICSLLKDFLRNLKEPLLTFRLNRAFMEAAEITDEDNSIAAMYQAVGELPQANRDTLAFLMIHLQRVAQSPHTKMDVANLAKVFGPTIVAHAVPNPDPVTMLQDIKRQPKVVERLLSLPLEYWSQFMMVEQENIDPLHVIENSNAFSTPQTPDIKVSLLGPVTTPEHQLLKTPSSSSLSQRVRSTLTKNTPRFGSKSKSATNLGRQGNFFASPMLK

[18] = target: Cytochrome P450 2C9 (Homo sapiens, UniProt P11712)
Chain of Cytochrome P450 2C9 (P11712 whole entry): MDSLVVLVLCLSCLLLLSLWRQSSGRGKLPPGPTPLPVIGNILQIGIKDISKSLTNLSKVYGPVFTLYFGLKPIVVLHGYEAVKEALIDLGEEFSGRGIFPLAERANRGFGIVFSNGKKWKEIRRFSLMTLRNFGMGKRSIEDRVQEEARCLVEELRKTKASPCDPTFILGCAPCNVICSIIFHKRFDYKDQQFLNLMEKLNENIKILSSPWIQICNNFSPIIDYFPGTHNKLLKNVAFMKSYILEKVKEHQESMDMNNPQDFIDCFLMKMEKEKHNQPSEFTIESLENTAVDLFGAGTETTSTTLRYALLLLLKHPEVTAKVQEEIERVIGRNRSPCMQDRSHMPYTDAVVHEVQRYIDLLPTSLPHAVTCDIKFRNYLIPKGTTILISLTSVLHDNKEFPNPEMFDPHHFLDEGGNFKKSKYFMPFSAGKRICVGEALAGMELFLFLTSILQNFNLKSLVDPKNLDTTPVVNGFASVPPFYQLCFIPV

COc1ccc(NC(=O)c2[nH]cnc2C(=O)NCc2ccccc2)cc1
IC50 [1]: > 20 µM (inactive)

CCCSc1nsc(NC(=O)C(c2ccccc2)c2ccccc2)n1
EC50 [2]: 11.3 µM (active)
AC50 [3]: 2.87 µM (active)
EC50 [4]: 6.12 µM (active)
EC50 [5]: 2.73 µM (active)

COC(=O)[C@@H](Cc1ccccc1)N(Cc1ccccc1)S(=O)(=O)N(Cc1ccccc1)[C@H](Cc1ccccc1)C(=O)OC
AC50 [6]: 3.91 µM (active)

CCCNCC1C(Oc2ccc(Cl)cc2Cl)C(=O)N1c1cccc(C)c1C (centres undefined)
EC50 [7]: > 60 µM (not active)
AC50 [3]: 5.78 µM (active)
EC50 [8]: 3.52 µM (active)

CCC1(c2ccccc2)NC(=O)N(CC(=O)NCc2ccccc2OC)C1=O (centres undefined)
EC50 [9]: > 260 µM (inactive)

COCCCn1c(C(=O)NC2CCCCC2C)cc2c(=O)n3cccc(C)c3nc21 (centres undefined)
EC50 [9]: > 260 µM (inactive)

CCc1ccc(C2CC(c3cccc(Cl)c3)n3nc(N)nc3N2)cc1 (centres undefined)
AC50 [6]: > 120 µM (inactive)

COC(=O)[C@@]1(Cc2ccc(OC)cc2)[C@H]2c3cc(C(=O)N(C)C)n(CCc4c[nH]c5ccc(O)cc45)c3C[C@H]2CN1C(=O)c1ccccc1
AC50 [10]: 25.1 µM (inconclusive)
AC50 [11]: 15.8 µM (inconclusive)

CC1(C)CC2=Nc3cc4c(cc3C(c3ccc5c(c3)OCO5)C2=C(O)C1)OCO4 (centres undefined)
EC50 [9]: 72 µM (active)

O=C(N/N=C/c1cc(Br)c(O)c(Br)c1O)c1ccc2c(c1)OCCO2
AC50 [6]: 3.1 µM (active)

Cc1noc(-c2ccc(C(F)(F)F)cc2)c1NC(=O)Nc1ccc(Cl)cc1
AC50 [6]: 6.96 µM (active)

CCCCCCCCCCS(=O)(=O)N/N=C/c1ccc([N+](=O)[O-])cc1
AC50 [3]: 8.29 µM (active)

O=C(N/N=C/c1ccc(O)cc1)c1[nH]c2ccc(Br)cc2c1-c1ccccc1
EC50 [12]: 11.4 µM (active)
AC50 [13]: 4.43 µM (active)

NC(=O)c1ccccc1OC1CCC1
AC50 [6]: > 260 µM (inactive)

COc1ccc(C2Nc3ccccc3C(=O)N2c2ccc(C)cc2)cc1Cn1nnc2ccccc21 (centres undefined)
EC50 [14]: 4.2 µM (active)
EC50 [15]: 50.7 µM (active)

COCCn1c(=O)c(-c2ccc(Cl)cc2)nc2cnc(N(C)C)nc21
AC50 [11]: 0.0794 µM (inconclusive)

CN(Cc1nnc(-c2ccc(F)cc2)o1)c1ccccc1
EC50 [9]: > 260 µM (inactive)

O=C1CC(Nc2ccccc2)=NN1c1ccccc1
AC50 [16]: 28.2 µM (inconclusive)
AC50 [3]: 3.96 µM (active)

O=C(OCc1ccccc1F)c1ccc2c(c1)OCCO2
EC50 [14]: 1.38 µM (active)
EC50 [15]: 5.23 µM (active)

Cc1cc(NC(=O)c2sc3ccccc3c2O)no1
IC50 [17]: 75.2 µM (active)

Cc1onc(-c2ccccc2)c1C(=O)N=C(N)c1ccc(C(F)(F)F)cc1
EC50 [9]: > 260 µM (inactive)

Cc1ccc(NC(=S)NNC(=O)c2nnn(-c3ccccc3)c2C)cc1
IC50 [1]: > 20 µM (inactive)

N#CC1=C(S)N(c2ccccc2)C(c2ccc(-c3cccc(Cl)c3)o2)NC1=O (centres undefined)
IC50 [17]: 181 µM (active)

COc1cccc(-c2nc(N3CCN(c4ccccc4)CC3)c3ccccc3n2)c1O
EC50 [9]: > 260 µM (inactive)

Sc1nnc2ccccn12
IC50 [17]: 34 µM (active)

COc1ccccc1N1CCN(Cc2cccc(OC)c2O)CC1
EC50 [9]: > 260 µM (inactive)

Cc1cc(C(=O)CSc2nnnn2C)c(C)n1Cc1ccco1
EC50 [14]: 5.73 µM (active)
EC50 [15]: > 120 µM (not active)

CCCCCCc1cc2cc(C(=O)Nc3ccccc3)c(=O)oc2cc1O
AC50 [3]: 0.257 µM (active)
AC50 [6]: 3.15 µM (active)

CSc1ccccc1NC(=O)CN(C)C(C)C(=O)NCc1ccc2c(c1)OCO2 (centres undefined)
IC50 [17]: 46.7 µM (active)

Cc1c(C)n(Cc2ccccc2)c2ncnc(N)c12
IC50 [1]: > 20 µM (inactive)

CC(C)Cn1c(SCc2nc(O)c3ccccc3n2)nc2ccccc2c1=O
AC50 [11]: 3.98 µM (inconclusive)

Cc1nn(Cc2ccc(Cl)cc2)c(C)c1NC(=O)c1cc(-c2ccc3c(c2)OCO3)on1
EC50 [7]: 3.87 µM (active)
AC50 [3]: 0.486 µM (active)
EC50 [8]: 1.99 µM (active)

COc1ccc(CNc2ccnc(-c3cccc(C#N)c3)n2)c(OC)c1
AC50 [11]: 12.6 µM (inconclusive)
AC50 [18]: 0.501 µM (inconclusive)

CCOC(=O)c1c(S(=O)(=O)NCC2CCN(CCc3cccs3)CC2)c(C)n(C)c1C
EC50 [9]: > 260 µM (inactive)

CCOc1cc(/C=N/NC(=O)C(=O)N2CCCC2)ccc1O
IC50 [17]: 56.3 µM (active)

c1ccc(CN2CCN(CCOCCOc3ccc4c(c3)CCC4)CC2)cc1
IC50 [17]: 53.6 µM (active)

Cc1[nH]c2ccccc2c1/C=C(\C#N)C(=O)NCC1CCCO1 (centres undefined)
EC50 [9]: 53.1 µM (active)

COc1cccc(-c2nn(-c3ccccc3)cc2C(=O)n2nnc3ccccc32)c1
EC50 [9]: 4.15 µM (active)

COC(=O)N1C(c2ccccc2)C1c1ccccc1 (centres undefined)
EC50 [9]: > 260 µM (inactive)

CSCCC(NC(=O)c1ccccc1Br)C(=O)NNC(=O)c1csc(N2CCOCC2)n1 (centres undefined)
IC50 [1]: > 20 µM (inactive)

COc1cc(/C=N/Nc2ccccn2)cc(OC)c1O
IC50 [17]: 35 µM (active)

COC(=O)c1cc(S(=O)(=O)NCc2ccc(F)cc2)cn1C
EC50 [12]: > 195 µM (not active)

Cc1ccc(NC(=O)CN2CCN(C)CC2)cc1Br
IC50 [17]: 98.5 µM (active)

Cc1ccc(CSCC(=O)N(C)CC(=O)Nc2ccc(C)cc2)cc1
EC50 [12]: > 195 µM (not active)

COc1ccc2[nH]cc(CCNc3cc(-c4cccnc4)ncn3)c2c1
AC50 [11]: 20 µM (inconclusive)

CCCCOC(=O)CCCc1ccc([N+](=O)[O-])cc1[N+](=O)[O-]
EC50 [9]: > 260 µM (inactive)

CCOC(=O)N1CCc2c(sc(NC(=O)CN(CC)CC)c2C#N)C1
IC50 [1]: > 20 µM (inactive)

CC(=O)c1cccc(/N=C/c2c(O)oc3ccccc3c2=O)c1
EC50 [9]: 2.8 µM (active)

COc1cc(OC)cc(-c2sc3ccc(OC)cc3c2-c2ccc(O)cc2)c1
AC50 [3]: 2.46 µM (active)
